The target in test [1] is full-length human PTPN2 (TC45) (1-387) (Homo sapiens (Human), UniProt P17706). The experiment in a line: Enzymatic assay used to determine potency of PTPN2 inhibitors (full length PTPN2 DiFMUP assay). The format is biochemical. To be noted: 0.5 nM PTPN2, 100 μM DiFMUP, 30 min at room temperature. As for the experimental part:
Compound activity was determined in an in vitro enzymatic assay using untagged, full-length human PTPN2 (TC45) (1-387) protein. PTPN2 was produced in E. coli as a GST-TEV fusion and the GST was removed by TEV digestion, followed by additional purification to yield full-length PTPN2 (SEQ ID 1). PTPN2 enzyme was diluted in assay buffer (50 mM HEPES pH7.5, 0.2 mM EDTA, 1 mM DTT, 0.02% Brij-35, 0.02% BSA) to a final concentration of 0.5 nM and added to black 384-well non-binding plates (Greiner, 781900). Compounds were subsequently added using a Tecan D300e dispenser. Following a 10 min incubation at room temperature, DiFMUP substrate (ThermoFisher, D22065) was added to a final concentration of 100 μM. Plates were transferred to a SpectraMax plate reader (Molecular Devices) and fluorescence intensity was measured (ex 358, em 455) after a 30 min incubation at room temperature. […] A four-parameter curve fit was used to determine IC50 values from % inhibition data.

For test [2], the system named is murine B16F10 melanoma cell line. The experiment in a line: B16F10 IFNγ-induced cellular growth inhibition assay (xCELLigence RTCA). The format is cell-based. The note with it: B16F10 cells, 1 ng/mL mouse IFNγ, AUC of growth curve, read-out: B16 IFNγ Mediated Growth Inhibition Assay: AVG IC50. On the procedure: Compound activity was determined using an interferon gamma (IFNγ)-induced cellular growth inhibition assay with the murine B16F10 melanoma cell line on an Agilent xCELLigence Real-Time Cell Analysis platform (RTCA). RTCA E-Plate View 96 plates (Agilent, 300601010) were pre-equilibrated with 50 μL of assay media (DMEM+10% FBS, Gibco 10566-024, Gibco 10082-147) at 37° C. in a humidified incubator before taking an initial measurement of impedance (sweep). B16F10 cells cultured in assay media were dissociated with TrypLE Express (Gibco 12605-010) for five minutes at 37° C., diluted in 3 volumes of assay buffer, centrifuged for 5 minutes at 500×g at room temperature before diluting cells to 7,700 cells/mL in assay media, plating 130 μL/well (1,000 cells/well) in the inner 60 wells of the assay plate, and adding 150 μL of assay media to the outer wells of the plate. Cells were incubated at room temperature for 20 min to allow cells to settle before placing them in the xCELLigence reader and incubating overnight at 37° C., sweeping wells every 15 minutes. After 24 hours, well readings were paused, plates were removed from the incubator and compounds were added using a Tecan D300e dispenser. All wells were normalized to a final concentration of 0.5% DMSO. Following a 30 min incubation at 37° C., recombinant mouse IFNγ (R&D Systems™ 485MI100) was diluted to 10 ng/mL in assay media and 20 μL was added to assay wells (1 ng/mL final concentration). Assay plates were placed in the xCELLigence reader and swept every 15 minutes.

Structures are written as SMILES. Like-named read-outs stand apart in the source and are kept apart here.

Chain of full-length human PTPN2 (TC45) (1-387) (P17706 other isoform, or with tags, fused parts or gaps): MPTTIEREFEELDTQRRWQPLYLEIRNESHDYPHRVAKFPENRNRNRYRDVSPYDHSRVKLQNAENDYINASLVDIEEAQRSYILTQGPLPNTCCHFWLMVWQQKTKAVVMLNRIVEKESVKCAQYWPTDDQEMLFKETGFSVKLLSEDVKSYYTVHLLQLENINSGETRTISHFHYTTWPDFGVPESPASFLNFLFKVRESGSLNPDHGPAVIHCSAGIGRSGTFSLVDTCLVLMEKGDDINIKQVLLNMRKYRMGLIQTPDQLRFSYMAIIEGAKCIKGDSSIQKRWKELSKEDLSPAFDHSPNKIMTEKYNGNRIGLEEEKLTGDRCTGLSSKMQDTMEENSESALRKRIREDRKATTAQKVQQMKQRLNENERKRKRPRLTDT

`O=C1CN(c2c(O)ccc(CC3CCCCN3CCc3ccccc3)c2F)S(=O)(=O)N1` (stereo not drawn) [Example 78]: the half-maximal inhibitory concentration (IC50) – broadly, the concentration that inhibits the measured activity by half – was 13 nM in test [1] and 11 µM in test [2] (Mus musculus, B16-F10, 48 h).
For `O=C1CN(c2c(O)cc(CCN3CCC(O)C3)cc2F)S(=O)(=O)N1` (stereo not drawn) [Example 103] the same measures were 50 nM and 13.2 µM.
For `O=C1CN(c2c(O)cc(CC3CCN(Cc4cnco4)C3)cc2F)S(=O)(=O)N1` (stereo not drawn) [Example 4] the same measures were 14 nM and > 100 µM.
For the compound `O=C1CN(c2c(O)cc(CCN3CCC(CO)C3)cc2F)S(=O)(=O)N1` (stereo not drawn) [Example 102], the IC50 in test [1] was 2 nM; in test [2] (Mus musculus, B16-F10, 48 h), 0.605 µM.
With `CCCCCN1CCCC(Cc2cc(O)c(N3CC(=O)NS3(=O)=O)c(F)c2)C1` (stereo not drawn) [Example 33], the half-maximal inhibitory concentration (IC50) is 35 nM in test [1] and 28.8 µM in test [2] (Mus musculus, B16-F10, 48 h).
For `CC(C)CCN1CCCC[C@H]1Cc1ccc(O)c(N2CC(=O)NS2(=O)=O)c1F` (single isomer, unassigned) [Example 82] the same measures were 76 nM and 36.3 µM.
For `O=C1CN(c2c(O)cc(CCN3CCC(F)(F)C3)cc2F)S(=O)(=O)N1` [Example 91] the same measures were 36 nM and > 24 µM.
For `O=C1CN(c2c(O)cc(CC3CCCN(Cc4cn[nH]c4)C3)cc2F)S(=O)(=O)N1` (stereo not drawn) [Example 42] the same measures were 12 nM and > 100 µM.
With `CC1(F)CCN(CCc2cc(O)c(N3CC(=O)NS3(=O)=O)c(F)c2)C1` (stereo not drawn) [Example 106], the IC50 in test [1] is 2 nM; in test [2] (Mus musculus, B16-F10, 48 h) it was 0.256 µM.
For `O=C1CN(c2c(O)cc(CCC3CCCN3)cc2F)S(=O)(=O)N1` (stereo not drawn) [Example 66] the same measures were 16 nM and 4.27 µM.
For `O=C1CN(c2c(O)cc(CCN3CCC4(CCCCC4)C3)cc2F)S(=O)(=O)N1` [Example 116] the same measures were 2 nM and 0.172 µM.
As for `CCCC1CCN(Cc2cc(O)c(N3CC(=O)NS3(=O)=O)c(F)c2)C1` (stereo not drawn) [Example 71], the IC50 was 65 nM in test [1] and 19.3 µM in test [2] (Mus musculus, B16-F10, 48 h).
For `CCC1CCN(CCc2cc(O)c(N3CC(=O)NS3(=O)=O)c(F)c2)CC1` [Example 125] the same measures were 2 nM and 3.09 µM.
For `O=C1CN(c2c(O)cc(CCN3CCC(F)(F)CC3)cc2F)S(=O)(=O)N1` [Example 98] the same measures were 5 nM and 1.05 µM.
For the compound `O=C1CN(c2c(O)cc(CC3CCCNC3)cc2F)S(=O)(=O)N1` (stereo not drawn) [Example 54], the IC50 came to 75 nM in test [1] and 25.8 µM in test [2] (Mus musculus, B16-F10, 48 h).
For `CC(C)CN1CCCC(Cc2cc(O)c(N3CC(=O)NS3(=O)=O)c(F)c2)C1` (stereo not drawn) [Example 50] the same measures were 91 nM and > 100 µM.
As to `O=C1CN(c2c(O)ccc(CC3CCCCN3CCC(F)(F)F)c2F)S(=O)(=O)N1` (stereo not drawn) [Example 77], the IC50 in test [1] was 4 nM; in test [2] (Mus musculus, B16-F10, 48 h), > 100 µM.
For the compound `O=C1CN(c2c(O)cc(CC3CCCN(CC4CC4)C3)cc2F)S(=O)(=O)N1` (stereo not drawn) [Example 37], the IC50 in test [1] stood at 66 nM; in test [2] (Mus musculus, B16-F10, 48 h), 46.4 µM.
For `O=C1CN(c2c(O)cc(CCN3CC4CCC3C4)cc2F)S(=O)(=O)N1` (stereo not drawn) [Example 133], the IC50 in test [1] came to 3 nM; in test [2] (Mus musculus, B16-F10, 48 h) it was 1.04 µM.
For `O=C1CN(c2c(O)cc(CC3CCN(Cc4ccoc4)C3)cc2F)S(=O)(=O)N1` (stereo not drawn) [Example 12] the same measures were 12 nM and 4.34 µM.
For `CC(C)N1CCC(Cc2cc(O)c(N3CC(=O)NS3(=O)=O)c(F)c2)C1` (stereo not drawn) [Example 2] the same measures were 14 nM and 28.2 µM.
For `O=C1CN(c2c(O)cc(CC3CCCN(CC4CCCC4)C3)cc2F)S(=O)(=O)N1` (stereo not drawn) [Example 34] the same measures were 43 nM and 9.96 µM.
Turning to `O=C1CN(c2c(O)cc(CCN3CCC(CC(F)(F)F)C3)cc2F)S(=O)(=O)N1` (stereo not drawn) [Example 130], the 50% inhibitory concentration (IC50) in test [1] came to 1 nM; in test [2] (Mus musculus, B16-F10, 48 h), 0.208 µM.
For `O=C1CN(c2c(O)cc(CC3CCCN(Cc4ncc[nH]4)C3)cc2F)S(=O)(=O)N1` (stereo not drawn) [Example 52] the same measures were 44 nM and > 73 µM.
`CC(C)(C)CN1CCC(Cc2cc(O)c(N3CC(=O)NS3(=O)=O)c(F)c2)C1` (stereo not drawn) [Example 20]: the IC50 in test [1] came to 15 nM; in test [2] (Mus musculus, B16-F10, 48 h), 2.62 µM.
For `O=C1CN(c2c(O)cc(CN3CCCC3)cc2F)S(=O)(=O)N1` [Example 73] the same measures were 92 nM and 8.62 µM.
Turning to `CC(C)CCN1CCC(Cc2cc(O)c(N3CC(=O)NS3(=O)=O)c(F)c2)C1` (stereo not drawn) [Example 19], the half-maximal inhibitory concentration (IC50) was determined as 12 nM in test [1] and 8.43 µM in test [2] (Mus musculus, B16-F10, 48 h).
Regarding `CC(C)CCN1CCCC(Cc2cc(O)c(N3CC(=O)NS3(=O)=O)c(F)c2)C1` (stereo not drawn) [Example 41], the IC50 was 47 nM in test [1] and > 100 µM in test [2] (Mus musculus, B16-F10, 48 h).
Turning to `O=C1CN(c2c(O)cc(CCN3CCCCC3)cc2F)S(=O)(=O)N1` [Example 90], the IC50 amounted to 2 nM in test [1] and 1.22 µM in test [2] (Mus musculus, B16-F10, 48 h).
For `CCCN1CCCC(Cc2cc(O)c(N3CC(=O)NS3(=O)=O)c(F)c2)C1` (stereo not drawn) [Example 49] the same measures were 96 nM and > 38 µM.
For `O=C1CN(c2c(O)cc(CCN3CC[C@@H](F)C3)cc2F)S(=O)(=O)N1` [Example 95] the same measures were 2 nM and 0.432 µM.
For `CCCN1CCC(Cc2cc(O)c(N3CC(=O)NS3(=O)=O)c(F)c2)C1` (stereo not drawn) [Example 11] the same measures were 18 nM and 5.18 µM.
Regarding `O=C1CN(c2c(O)cc(CCN3CCC(C(F)(F)F)C3)cc2F)S(=O)(=O)N1` (stereo not drawn) [Example 96], the IC50 in test [1] amounted to 2 nM; in test [2] (Mus musculus, B16-F10, 48 h) it was 0.68 µM.
With `CN1CCCCC(Cc2cc(O)c(N3CC(=O)NS3(=O)=O)c(F)c2)C1` (stereo not drawn) [Example 56, 5-(2-fluoro-6-hydroxy-4-((1-methylazepan-3-yl)methyl)phenyl)-1,2,5-thiadiazolidin-3-one 1,1-dioxide], the IC50 in test [1] was 28 nM; in test [2] (Mus musculus, B16-F10, 48 h), > 45 µM.
For `CCCC1CNCC1Cc1cc(O)c(N2CC(=O)NS2(=O)=O)c(F)c1` (stereo not drawn) [Example 29] the same measures were 13 nM and > 62 µM.
For `O=C1CN(c2c(O)cc(CCN3CCC(O)CC3)cc2F)S(=O)(=O)N1` [Example 101] the same measures were 2 nM and 1.69 µM.
For the compound `O=C1CN(c2c(O)cc(CCN3CC(CC(F)(F)F)C3)cc2F)S(=O)(=O)N1` [Example 142], the IC50 amounted to 3 nM in test [1] and 0.542 µM in test [2] (Mus musculus, B16-F10, 48 h).
For `O=C1CN(c2c(O)cc(CCN3CCCC3)cc2F)S(=O)(=O)N1` [Example 83, 5-(2-fluoro-6-hydroxy-4-(2-(pyrrolidin-1-yl)ethyl)phenyl)-1,2,5-thiadiazolidin-3-one 1,1-dioxide] the same measures were 3 nM and 0.674 µM.
As for `O=C1CN(c2c(O)cc(CC3CCCN(Cc4ccoc4)C3)cc2F)S(=O)(=O)N1` (stereo not drawn) [Example 45], the IC50 turned out to be 30 nM in test [1] and 55.4 µM in test [2] (Mus musculus, B16-F10, 48 h).
Consider `CN1CCCCC1Cc1ccc(O)c(N2CC(=O)NS2(=O)=O)c1F` (stereo not drawn) [Example 74, 5-(2-fluoro-6-hydroxy-3-((1-methylpiperidin-2-yl)methyl)phenyl)-1,2,5-thiadiazolidin-3-one 1,1-dioxide], for which the IC50 came out at 161 nM in test [1] and 9.29 µM in test [2] (Mus musculus, B16-F10, 48 h).
On to `CC(C)CCN1CCCCC1Cc1ccc(O)c(N2CC(=O)NS2(=O)=O)c1F` (stereo not drawn) [Example 76], for which the IC50 in test [1] came to 6 nM; in test [2] (Mus musculus, B16-F10, 48 h) it was 8.92 µM.
For `CCCC1NCCC1Cc1cc(O)c(N2CC(=O)NS2(=O)=O)c(F)c1` (stereo not drawn) [Example 28] the same measures were 23 nM and > 57 µM.
For `CC(C)(C)C1CN(CCc2cc(O)c(N3CC(=O)NS3(=O)=O)c(F)c2)C1` [Example 129] the same measures were 2 nM and 0.66 µM.
Regarding `CC[C@@H]1CCN(CCc2cc(O)c(N3CC(=O)NS3(=O)=O)c(F)c2)C1` [Example 110], the 50% inhibitory concentration (IC50) was found to be 2 nM in test [1] and 0.127 µM in test [2] (Mus musculus, B16-F10, 48 h).
As for `O=C1CN(c2c(O)cc(CC3CCN(CC4CC4)C3)cc2F)S(=O)(=O)N1` (stereo not drawn) [Example 10], the results for the IC50 in test [1] and in test [2] (48 hours) were 50 nM and 17.4 µM, respectively.

Values taken from patent publication US20250257059A1, “PROTEIN TYROSINE PHOSPHATASE INHIBITORS AND USES THEREOF” (Nerio Therapeutics, Inc., priority 2022, published 2025).
